Earlier results in US20090246264A1, “Transdermal Tobacco Alkaloid Patch” (Fertin Pharma, priority 2005, published 2009).

Conditions: pure nicotine placed on the skin of an ordinary human being

**Q.** With `CN1CCCC1c1cccnc1` (stereo not shown) [nicotine] as the compound, how does the lethal dose read?
**A.** Its lethal dose is 50 mg.
